Measurements as given in patent US20240043386A1, “Modulators of the Cystic Fibrosis Transmembrane Conductance Regulator Protein and Methods of Use” (AbbVie Global Enterprises Ltd., priority 2021, published 2024).
Where two headings read alike, the source gives them in different places.

Assays:
F508del/F508del CFTR = target: T1, F508del/F508del CFTR (Homo sapiens, UniProt P13569, DEL508-508); assay: Trans-Epithelial Current Clamp (TECC) assay using primary human bronchial epithelial cells; format: cell-based; details: for Emax (% Dual): maximum percent activity relative to positive control (co-corrector 0.15 μM + potentiator 0.45 μM = 100%), primary hBE cells F508del/F508del; for EC50: primary hBE cells homozygous F508del/F508del, test C2 corrector with co-corrector and potentiator, 18-24 hours at 37° C., equivalent CFTR current (IEQ)/AUC
T1 construct: cells isolated from CF patients with the homozygous mutation; endogenous in cells; host or cells: primary human bronchial epithelial (hBE) cells from CF patients homozygous for F508del
Summary of the method: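 F508del/F508del primary hBE cells grown 35 days at air-liquid interface were treated basolaterally with C2 correctors plus fixed co-corrector and potentiator for 18-24 h at 37° C. TECC-24 current clamp at 36.5° C in HEPES-buffered F-12 Coon's, pH 7.4; equivalent current IEQ=VT/RT, plus AUC between forskolin peak and bumetanide.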

F508delCFTR = target: T2, F508delCFTR (Homo sapiens, UniProt P13569, DEL508-508); assay: Cell Surface Expression-Horse Radish Peroxidase (CSE-HRP) assay in CFBE41o-F508delCFTR-HRP cells; format: cell-based; details: for EC50: CFBE41o-F508delCFTR-HRP cells, 18-24 hours at 33° C., luminescence
T2 construct: expressed in transfected cells; host or cells: CFBE41o- human lung-derived epithelial cell line, doxycycline-inducible expression
Summary of the method: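 CFBE41o- cells expressing F508delCFTR with HRP in the fourth exofacial loop were doxycycline-induced (0.5 μg/mL) for 68–72 h, then exposed to correctors for 18–24 h at 33 °C, with or without 2 μM co-corrector. Surface HRP was read by luminol luminescence, and % activity was normalized to the on-plate positive control; EC50 came from a variable-slope sigmoidal fit (8 points, 3-fold dilution, 20 or 30 μM top).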

[1] = with co-corrector (2 μM), read-out: EC50 (with co-corrector)
[2] = without co-corrector, read-out: EC50 (without co-corrector)
[3] = without co-corrector, normalized to on-plate positive control corrector (2 μM)

T2 sequence (P13569 with tags, fused parts or gaps DEL508-508): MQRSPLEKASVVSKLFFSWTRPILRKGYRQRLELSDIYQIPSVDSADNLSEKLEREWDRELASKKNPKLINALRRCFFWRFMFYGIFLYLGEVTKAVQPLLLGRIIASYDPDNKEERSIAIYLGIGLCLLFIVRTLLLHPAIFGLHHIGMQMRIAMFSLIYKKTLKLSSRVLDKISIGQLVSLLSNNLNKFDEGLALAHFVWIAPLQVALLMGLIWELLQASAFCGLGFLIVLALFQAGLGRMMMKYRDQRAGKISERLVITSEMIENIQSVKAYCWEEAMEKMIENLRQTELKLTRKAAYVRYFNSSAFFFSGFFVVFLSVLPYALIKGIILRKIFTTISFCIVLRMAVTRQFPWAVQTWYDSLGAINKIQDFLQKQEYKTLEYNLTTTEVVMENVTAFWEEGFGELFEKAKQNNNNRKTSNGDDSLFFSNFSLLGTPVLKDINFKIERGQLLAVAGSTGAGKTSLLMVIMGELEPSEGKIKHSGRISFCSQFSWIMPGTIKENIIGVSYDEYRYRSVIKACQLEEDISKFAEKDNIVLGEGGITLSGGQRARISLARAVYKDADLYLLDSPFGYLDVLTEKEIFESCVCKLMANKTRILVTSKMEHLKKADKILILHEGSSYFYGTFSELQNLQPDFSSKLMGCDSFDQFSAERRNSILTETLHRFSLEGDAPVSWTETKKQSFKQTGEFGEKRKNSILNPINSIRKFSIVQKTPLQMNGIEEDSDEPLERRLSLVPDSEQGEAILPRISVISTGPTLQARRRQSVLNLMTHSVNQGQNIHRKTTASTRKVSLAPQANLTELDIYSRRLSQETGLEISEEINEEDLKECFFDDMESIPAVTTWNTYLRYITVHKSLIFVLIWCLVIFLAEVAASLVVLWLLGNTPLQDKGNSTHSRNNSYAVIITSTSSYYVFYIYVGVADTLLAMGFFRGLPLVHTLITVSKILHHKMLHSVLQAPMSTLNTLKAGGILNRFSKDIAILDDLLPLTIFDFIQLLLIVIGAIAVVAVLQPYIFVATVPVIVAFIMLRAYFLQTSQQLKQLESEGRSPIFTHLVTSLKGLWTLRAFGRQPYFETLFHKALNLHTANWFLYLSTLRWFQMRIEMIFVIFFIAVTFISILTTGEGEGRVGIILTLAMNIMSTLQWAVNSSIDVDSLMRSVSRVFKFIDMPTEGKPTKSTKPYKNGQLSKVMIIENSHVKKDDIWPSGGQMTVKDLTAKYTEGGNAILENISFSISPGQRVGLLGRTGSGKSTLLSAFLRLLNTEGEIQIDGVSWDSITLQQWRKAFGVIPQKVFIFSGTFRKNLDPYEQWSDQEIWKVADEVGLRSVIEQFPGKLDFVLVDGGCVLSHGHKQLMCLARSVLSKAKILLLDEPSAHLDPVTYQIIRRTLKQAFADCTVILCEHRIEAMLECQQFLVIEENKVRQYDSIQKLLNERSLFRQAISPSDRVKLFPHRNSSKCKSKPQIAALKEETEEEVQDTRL
T1 sequence (P13569 with tags, fused parts or gaps DEL508-508): as above

Structure (SMILES)	Emax (% Dual) (F508del/F508del CFTR)	EC50 (F508del/F508del CFTR) [nM]	EC50 (F508delCFTR; [1]) [nM]	EC50 (F508delCFTR; [2]) [nM]	Maximum % activity (without co-corrector) (F508delCFTR; [3]) [%]	Maximum % activity (with co-corrector) (F508delCFTR; with co-corrector (2 μM), normalized to on-plate positive control corrector (2 μM)) [%]
COc1ccc(C)cc1[C@]1(C(=O)NS(=O)(=O)c2cccc3nc(C)ccc23)C[C@@H]1c1ccccn1 [Example 14, (1S,2S)-1-(2-methoxy-5-methylphenyl)-N-(2-methylquinoline-5-sulfonyl)-2-(pyridin-2-yl)cyclopropane-1-carboxamide]	165	799	2800	3810	520	–
CCOc1cnc([C@@H]2C[C@]2(C(=O)NS(=O)(=O)c2cccc3nc(C)ccc23)c2cc(C)ccc2OC)cn1 (single isomer, unassigned) [Example 65]	208	19.3	586	1340	394	828
CCOc1ccc([C@H]2C[C@@]2(C(=O)NS(=O)(=O)c2cccc3nc(C)ccc23)c2cc(C)ccc2OC)cn1 [Example 58, (1S,2R)-2-(6-ethoxypyridin-3-yl)-1-(2-methoxy-5-methylphenyl)-N-(2-methylquinoline-5-sulfonyl)cyclopropane-1-carboxamide]	246	31.4	2120	3910	–	–
COc1ccc(C)cc1[C@@]1(C(=O)NS(=O)(=O)c2cccc3nc(C)ccc23)C[C@H]1c1cccnc1OC [Example 49, (1R,2S)-1-(2-methoxy-5-methylphenyl)-2-(2-methoxypyridin-3-yl)-N-(2-methylquinoline-5-sulfonyl)cyclopropane-1-carboxamide]	321	35.8	1170	1990	453	–

Compounds with a lower EC50 (F508del/F508del CFTR), results first:

Emax (% Dual) (F508del/F508del CFTR)	EC50 (F508del/F508del CFTR) [nM]	EC50 (F508delCFTR; [1]) [nM]	EC50 (F508delCFTR; [2]) [nM]	Maximum % activity (without co-corrector) (F508delCFTR; [3]) [%]	Maximum % activity (with co-corrector) (F508delCFTR; with co-corrector (2 μM), normalized to on-plate positive control corrector (2 μM)) [%]	Structure (SMILES)
360	0.992	994	2450	–	–	COc1ccc(C)cc1[C@]1(C(=O)NS(=O)(=O)c2cccc3nc(C)ccc23)C[C@@H]1c1ccccc1 (single isomer, unassigned) [Example 3]
259	9.1	1440	2960	–	–	COc1ccc([C@H]2C[C@@]2(C(=O)NS(=O)(=O)c2cccc3nc(C)ccc23)c2cc(C)ccc2OC)cn1 [Example 32, (1S,2R)-1-(2-methoxy-5-methylphenyl)-2-(6-methoxypyridin-3-yl)-N-(2-methylquinoline-5-sulfonyl)cyclopropane-1-carboxamide]
308	0.84	698	1010	–	–	COc1cccc([C@@H]2C[C@]2(C(=O)NS(=O)(=O)c2cccc3nc(C)ccc23)c2cc(C)ccc2OC)c1 (racemic) [Example 15, rac-(1r,2s)-1-(2-methoxy-5-methylphenyl)-2-(3-methoxyphenyl)-N-(2-methylquinoline-5-sulfonyl)cyclopropane-1-carboxamide]
